According to patent EP3685668B1, “COMPOSITION COMPRISING ACIBENZOLAR-S-METHYL AS EFFECTIVE INGREDIENT FOR CONTROLLING BURSAPHELENCHUS XYLOPHILUS DISEASE AND METHOD FOR CONTROLLING BURSAPHELENCHUS XYLOPHILUS USING SAME” (Industry Foundation of Chonnam National University, priority 2017, dated 2019):

Experiments:
[1] = tested on: Bursaphelenchus xylophilus; assay: Occurrence of pine wilt disease after trunk injection of induced resistance candidate materials, in vivo test in young red pine trees; details: red pine tree (Pinus densiflora), 30 days after inoculation; for Occurrence rate of pine wilt disease: Number of pine trees showing wilt symptoms / Number of pine trees used for the test: trunk injection 100 µℓ per tree; for Number of pine trees showing wilt symptoms only at growing points of a stem: trunk injection
Procedure: By using the 15 types of an induced resistance elicitors which have been known to induce the plant resistance against various diseases as candidates, their controlling effect against pine wilt disease was examined. The control efficacy of candidates against pine wilt disease was analyzed according to an in vivo test using red pine tree (Pinus densiflora) which was 2-year old young pine trees (diameter of 5.5 mm or so, and height of about 35 mm).
As a candidate group of an induced resistance material, two kinds of acibenzolar-S-methyl (ASM), TDL (Tiadinil), ITL (Isotianil), PBZ (Probenzole), AZO (Azoxystrobin), VMA (Validamycin A), MeJA (Methyl jasmonate), BABA (DL-3-aminobutyric acid), 2,3-BDO (2,3-Butanediol), SA (salicyclic acid), GABA (r-Aminobutyric acid), glucan (Glucan), ER (Ergosterol), and AZA (Azelaic acid) were used. Only the use of acibenzolar-S-methyl is according to the invention. Injection of the chemicals was carried out by trunk injection method, i.e., at an angle of 45°, a borehole was created by using an electric drill with thickness of 1.5 mm on a pine stem part that is 5 to 10 cm above the soil surface, a tip (200 µℓ) was inserted to the hole, and, after dissolving the candidate material at concentration level of 200, 20, or 2 µg/mℓ in each solvent, the solution was injected in an amount of 100 µℓ per pine tree. After the injection of the chemical agent, the end part of the tip was sealed with parafilm.
The pine tree wilt nematodes (Bursaphelenchus xylophilus, National Institute of Forest Science (NIFoS), South Korea) was incubated at 25°C by feeding them with Botrytis cinerea, which have been cultured on a potato dextrose agar (PDA) medium, and after one week incubation, they were collected by Baermann funnel method and were adjusted to the level of 20,000 worms/mℓ by examining the number of the worms under an optical microscope. One week after the chemical treatment, the inoculation of the pine tree wilt nematodes was carried out by tree barking inoculation of 100 µℓ, i.e., 2,000 worms, per tree, and the result was determined 30 days after the inoculation. […] [Table 1] Occurrence rate of pine wilt disease in candidate group of induced resistance materials

Cytochrome_P450 = assay: qRT-PCR expression of induced resistance gene in pine tree callus; format: cell-based; details: 200 µg/mℓ, 24 hours
Procedure: For in vitro analysis of induced resistance, the expression of PR genes and other plant defense-related genes was determined, which are evolved in various defense mechanisms including induced resistance. The primers of sixteen induced resistance-related genes of pine tree used in this invention were listed in the below and elongation factor_1 alpha were used as a reference gene. […] The primer list of defense resistance-related genes
After the treatment with 200 µg / mℓ of candidates of the selected induced resistance material, expression of the induced resistance-related gene in pine callus was determined by qRT-PCR using the primer pairs of defense resistance-related genes in Table 4. As a candidate group of an induced resistance material in pine tree, acibenzolar-S-methyl (ASM), TDL (Tiadinil), ITL (Isotianil), PBZ (Probenzole), AZO (Azoxystrobin), VMA (Validamycin A), MeJA (Methyl jasmonate), BABA (DL-3-aminobutyric acid), 2,3-BDO (2,3-Butanediol), GABA (r-Aminobutyric acid), glucan (Glucan), ER (Ergosterol), and AZA (Azelaic acid) were used. For the in vitro analysis of the expression of induced resistance gene in pine callus, the selected induced resistance materials were applied with 500 µℓ of LM liquid medium on a surface of pine tree callus (100 mg) in 12-well microplate to give final concentration of 200 µg/mℓ. Then, the callus surface was sufficiently reacted for 24 hours with the candidate of pine tree induced resistance material by shaking at 50 rpm in a 25 °C shaking incubator under dark condition. RNAs were extracted from the callus after completion of the reaction with an induced resistance material, followed by synthesis of cDNAs. Then, by carrying out qRT-PCR, the expression of induced resistance genes was determined.
Thus, the following tests were carried out using acibenzolar-S-methyl only. Expression of the induced resistance genes at different culture time after the chemical treatment was examined. For the in vitro assay, LM medium containing pine tree callus was treated with acibenzolar-S-methyl at concentration of 200 µg / mℓ, followed by reaction for 1 day, 7 days, or 14 days in a 25°C shaking incubator under dark condition. RNAs were extracted from the callus after the reaction followed by synthesis of cDNAs. Then, by carrying out qRT-PCR, the expression of the induced resistance genes was determined. Depending on reaction time after the treatment, i.e., after 1 day, 7 days, or 14 days, the expression of the obtained induced resistance genes was examined. […]
For the surface treatment (spraying treatment) of pine tree callus, 100 mg of the pine tree callus were dunked in 500 µℓ LM liquid medium and 500 µℓ of 400 µg/mℓ acibenzolar-S-methyl were sprayed (i.e., sprayed 5 times, 100 µℓ for each spraying, 200 µg/mℓ) on the callus surface. Then, the pine callus sprayed with acibenzolar-S-methyl was reacted for 24 hours by shaking at 50 rpm in a 25°C shaking incubator under dark condition. After the completion of the 24-hour reaction, RNAs were extracted from the callus followed by synthesis of cDNAs. Then, by carrying out qRT-PCR, expression of the induced resistance gene was determined.

## CC(O)C(C)O (stereo not shown) [2,3-BDO, 2,3-Butanediol]
[1]; 2 µg/mℓ
  Occurrence rate of pine wilt disease: Number of pine trees showing wilt symptoms / Number of pine trees used for the test: 2/3
  Number of pine trees showing wilt symptoms only at growing points of a stem: 2
[1]; 20 µg/mℓ
  Occurrence rate of pine wilt disease: Number of pine trees showing wilt symptoms / Number of pine trees used for the test: 3/3
  Number of pine trees showing wilt symptoms only at growing points of a stem: 1
[1]; 200 µg/mℓ
  Occurrence rate of pine wilt disease: Number of pine trees showing wilt symptoms / Number of pine trees used for the test: 1/3
  Number of pine trees showing wilt symptoms only at growing points of a stem: 1
Cytochrome_P450
  Expression of induced resistance gene, Cytochrome_P450: 0.88
